Reference: publication PMC7307930, “Stereoselective Activity of 1-Propargyl-4-styrylpiperidine-like Analogues That Can Discriminate between Monoamine Oxidase Isoforms A and B” (Journal of Medicinal Chemistry, 2020)
Entries after “also recorded” stand apart in the source; their conditions may differ. Blank lines part the entries; values can stand above or below the compound they belong to.

Experiments:
[1] = Thermodynamic solubility in PBS; assay type: physicochemical; conditions: PBS (pH 7.4), 37 °C, 24 h, hydrochloride salts
5-HT1A receptor = molecular target: T1, 5-HT1A receptor (Rattus norvegicus, UniProt P19327); assay: [3H]-8-OH-DPAT radioligand binding assay, rat cortex membranes; conditions: for Ki: [3H]-8-OH-DPAT binding, means ±SEM; for inhibition at 300 µM: read-out: Inhibition at 300 µM
T1 construct: from tissue; host or cells: rat (male Wistar) brain cortex membranes
T1 sequence (P19327 1-422): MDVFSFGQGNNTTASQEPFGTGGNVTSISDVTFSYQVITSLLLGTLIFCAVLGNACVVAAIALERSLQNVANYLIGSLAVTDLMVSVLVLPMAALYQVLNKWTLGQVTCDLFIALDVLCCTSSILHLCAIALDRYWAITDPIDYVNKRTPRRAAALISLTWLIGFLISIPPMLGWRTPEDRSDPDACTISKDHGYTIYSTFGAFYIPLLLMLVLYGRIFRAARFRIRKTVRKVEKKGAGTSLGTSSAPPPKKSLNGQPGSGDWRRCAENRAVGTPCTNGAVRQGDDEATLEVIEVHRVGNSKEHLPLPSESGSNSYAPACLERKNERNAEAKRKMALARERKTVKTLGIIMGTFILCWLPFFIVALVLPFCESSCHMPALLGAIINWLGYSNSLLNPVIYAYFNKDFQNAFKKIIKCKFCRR

Swiss mice [2] = assay: Tail suspension test; assay type: in vivo, mouse; conditions: for immobility time, acute treatment: ip 30 min before, 6, 67 at 3 and 10 mg/kg, 69 at 1, 3, 10, 30 mg/kg, imipramine 30 mg/kg
Method: The antidepressant-like activity was screened with the widely used tail suspension test. At 30 min before the behavioral assays, the mice were treated with 6, 67, and 69 at 3 mg/kg and 10 mg/kg ip, with 69 also at 1 mg/kg and 30 mg/kg ip, or were injected with 0.9% saline as control. Imipramine (30 mg/kg ip) was used as the reference drug.
(A) Effects of acute ip treatment with 6 (3, 10 mg/kg, n = 13, 9), 67 (3, 10 mg/kg, n = 6, 10), and 69 (1, 3, 10, 30 mg/kg, n = 8, 7, 8, 6) and imipramine (30 mg/kg, n = 8) in the tail suspension test. […] (B) Effects of acute ip treatment with 6 (3, 10 mg/kg, n = 8, 8), 67 (1, 3, 6 mg/kg; n = 5, 5, 5), and 69 (1, 3, 6 mg/kg, n = 10, 5, 5) on locomotor activity of the mice. […] (C) Effects of 10-day chronic ip treatment with 69 (0.3 mg/kg, daily; n = 10) in the tail suspension test. Data are mean values ± SEM of the immobility time, compared to control mice (n = 8): ∗∗, p < 0.01 (unpaired t-test). […]
quality control sample every seven test samples. The absolute matrix effect was checked by comparing the analyte responses in the standard solutions to the samples spiked in the tissue incubation medium from the control experiment without the analyte, and a deviation of less than ±20% was deemed acceptable.
4.2.10In vitro radioligand binding assay
Rats were humanely killed by decapitation and their brains were removed, washed and rapidly dissected on ice. Homogenisation was performed using a homogeniser (PRO Scientific Inc) at 30,000 rpm for 1 min. For 5-HT1A binding assays, the cortex tissues were homogenised in 30 volumes/weight ice-cold 50 mM Tris–HCl buffer (pH 7.4), and the homogenate was centrifuged at 40,000× g for 15 min at 0 °C to 4 °C. The resulting pellets were resuspended in 30 volumes/weight of the same buffer, and incubated at 37 °C for 20 min. The centrifugation step was repeated twice under the same conditions as described above, and the final pellets were resuspended in 30 volumes/weight 50 mM Tris–HCl buffer (pH 7.4), and stored at –80 […]
For the [3H]-8-OH-DPAT binding assay (the 5-HT1A receptor binding assay), the membranes were thawed and resuspended in 50 mM Tris–HCl (pH 7.4) with 1 mM MnCl2, to a final protein concentration of 0.5 mg/mL. The incubation was carried out at 25 °C for 1 h in a final volume of 1 mL membrane suspension in the presence of the sample assayed and with 0.2 nM [3H]-8-OH-DPAT (170.2 Ci/mmol). Serotonin was used as the positive control. Non-specific binding was determined in parallel incubations in the presence of serotonin (10 μM).
4.2.11 Tail suspension test
The tail suspension test was carried out according to the methodology proposed by Steru and co-workers.22 The mice were individually suspended by the tail from a metal hook (distance

Swiss mice [3] = assay: Elevated plus maze test; assay type: in vivo, mouse
Swiss mice [4] = assay: Locomotor activity test; assay type: in vivo, mouse
SH-SY5Y cells = assay: MTS cytotoxicity assay; conditions: 24 h, 5 μM and 10 μM
[5] = Chemical stability and photoisomerization by proton NMR in D2O; assay type: physicochemical; conditions: hydrochloride salts, more than 1 year at room temperature protected from sunlight, 1H NMR in D2O
Method: Possible chemical instability and photoisomerization of E/Z isomers were also addressed as these are known liabilities of stilbene derivatives.[23] Proton NMRs of 69 (cis derivative), 84 (trans derivative), and 100 (ethyl analogue) in the form of hydrochloride salts were recorded in D2O (Figures S1–S3). […] The samples dissolved in the NMR tubes were then left on the benchtop exposed to natural daylight for 7 days, which could induce photoisomerization. […] Altogether, these studies imply reasonable stability of the compounds.
Figure S2. […] Compound 84 (trans isomer, […]
hydrochloride salt) was dissolved in D2O and the spectra were recorded at time 0 h, 1 h, 24 h and 7 days. Sample was exposed to day light in between the measurement, which could induce photoisomerization and potentially also chemical degradation.
The sample was previously stored at […]

MAO-A/B = assay: In vitro MAO inhibition in mouse brain homogenate, p-tyramine substrate; assay type: biochemical
[6] = In vitro permeability, rat intestine in diffusion chambers; assay type: in vitro ADME
Swiss mice [7] = assay: Body mass and survival during 10-day treatment; assay type: in vivo; conditions: 0.3 mg/kg ip daily
Method: Figure S9. In vivo effects of chronic treatment on body mass. Body mass variation (Percent weight) (mean ±SEM) in mice throughout the 10-day i.p. treatment with 69 (0.3 mg/kg; n = 10), 100 (0.3 mg/kg; n = 8) and saline (SAL; n = 16). Data are means ±SEM. All animals survived the treatments.

hMAO-A = molecular target: T2, hMAO-A (Homo sapiens, UniProt P21397); assay: hMAO-A inhibition, HRP–Amplex Red coupled fluorimetric assay; assay type: biochemical; conditions: supplement csv; RA at 100 micromolar
T2 construct: purchased Sigma Aldrich; host or cells: baculovirus-infected insect cells (BTI-TN-5B1-4)
T2 sequence (P21397 1-527): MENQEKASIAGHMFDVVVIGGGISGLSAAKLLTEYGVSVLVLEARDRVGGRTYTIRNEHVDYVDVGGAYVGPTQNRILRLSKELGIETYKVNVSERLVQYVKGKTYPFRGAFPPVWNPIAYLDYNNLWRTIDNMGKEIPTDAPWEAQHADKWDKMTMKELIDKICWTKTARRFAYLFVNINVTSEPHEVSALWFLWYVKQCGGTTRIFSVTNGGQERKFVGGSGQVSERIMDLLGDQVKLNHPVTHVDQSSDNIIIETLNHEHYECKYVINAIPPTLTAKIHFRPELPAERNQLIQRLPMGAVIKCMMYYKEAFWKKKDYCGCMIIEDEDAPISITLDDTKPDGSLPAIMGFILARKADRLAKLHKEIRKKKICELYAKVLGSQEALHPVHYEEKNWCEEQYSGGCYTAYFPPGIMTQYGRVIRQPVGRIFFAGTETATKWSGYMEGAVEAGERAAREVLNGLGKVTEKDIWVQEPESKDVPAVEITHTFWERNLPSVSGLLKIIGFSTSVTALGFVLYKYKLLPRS

Swiss mice [8] = assay: Haloperidol-induced catalepsy test; assay type: in vivo, mouse; conditions: 5 mg/kg, reference drug

thermodynamic solubility [1]: at least 17.6 g/250 mL
Ki (5-HT1A receptor): 2400 ± 600 nM
inhibition at 300 µM (5-HT1A receptor): 88%
SMILES: C#CCN1CCC(/C=C\c2ccc(F)cc2)CC1 [Compound 6, (Z)-4-(4-Fluorostyryl)-1-(prop-2-yn-1-yl)piperidine]
immobility time, acute treatment (Swiss mice [2]): significantly reduced
increase in the proportion of open-arm entries (Swiss mice [3]; 10 mg/kg ip, vs 0.9% saline): 2.0 fold
Open arm entries (%) (Swiss mice [3]; acute ip, 3 mg/kg): 10.8 ±2.6%
Time in centre (%) (Swiss mice [3]; acute ip, 3 mg/kg): 43.5 ±2.8%
Time in open arms (%) (Swiss mice [3]; acute ip, 3 mg/kg): 9.1 ±1.9%
Total arm entries (Swiss mice [3]; acute ip, 3 mg/kg): 22.0 ±1.5
Open arm entries (%) (Swiss mice [3]; acute ip, 10 mg/kg): 27.5 ±3.2%
Time in open arms (%) (Swiss mice [3]; acute ip, 10 mg/kg): 8.4 ±2.7%
spontaneous locomotor activity (Swiss mice [4]; acute 10 mg/kg ip): significantly decreased
cytotoxic effects (SH-SY5Y cells): no significant cytotoxic effects

thermodynamic solubility [1]: ≥ 10.5 g/250 mL
Ki (5-HT1A receptor): 700 ± 100 nM
inhibition at 300 µM (5-HT1A receptor): 96%
SMILES: C#CCN1CCC(/C=C\c2ccccc2)CC1 [Compound 67, (Z)-1-(Prop-2-yn-1-yl)-4-styrylpiperidine]
immobility time, acute treatment (Swiss mice [2]): did not decrease the immobility time
Open arm entries (%) (Swiss mice [3]; acute ip, 3 mg/kg): 15.0 ±2.3%
Time in centre (%) (Swiss mice [3]; acute ip, 3 mg/kg): 39.8 ±1.7%
Time in open arms (%) (Swiss mice [3]; acute ip, 3 mg/kg): 11.9 ±2.3%
Total arm entries (Swiss mice [3]; acute ip, 3 mg/kg): 20.6 ±2.4
Open arm entries (%) (Swiss mice [3]; acute ip, 6 mg/kg): 15.6 ±3.4%
Time in centre (%) (Swiss mice [3]; acute ip, 6 mg/kg): 53.1 ±5.7%
Time in open arms (%) (Swiss mice [3]; acute ip, 6 mg/kg): 5.4 ±1.0%
Total arm entries (Swiss mice [3]; acute ip, 6 mg/kg): 15.4 ±0.8
cytotoxic effects (SH-SY5Y cells): no significant cytotoxic effects

SMILES: C#CCN1CCC(/C=C\c2cccc(F)c2)CC1 [Compound 69, (Z)-4-(3-Fluorostyryl)-1-(prop-2-yn-1-yl)piperidine]
thermodynamic solubility [1]: ≥ 8.6 g/250 mL
chemical stability on storage [5]: no signs of chemical instability
residual activity, p-tyramine (0.5 mM), in vitro (MAO-A/B; 50 μM compound, homogenate from nontreated mice): 31.3 ± 0.2%
Papp A→B at 50 µM ([6]; male, Sprague-Dawley, pH 7.4, rat intestine, 50 μM donor, mean ± SEM, read-out: apparent permeability coefficient, absorptive direction): 10.8 ± 1.3 ×10⁻⁶ cm/s
Papp B→A at 50 µM ([6]; male, Sprague-Dawley, pH 7.4, rat intestine, 50 μM donor, mean ± SEM, read-out: apparent permeability coefficient, eliminatory direction): 35.4 ± 9.9 ×10⁻⁶ cm/s
permeability classification ([6]; rat intestine in vitro): intermediate/moderate permeability
Ki (5-HT1A receptor): 1700 ± 120 nM
inhibition at 300 µM (5-HT1A receptor): 92%
immobility time, chronic treatment (Swiss mice [2]; 10-day, 0.3 mg/kg ip daily): significantly decreased the immobility time
immobility time, acute treatment (Swiss mice [2]): did not decrease the immobility time
Time in centre (%) (Swiss mice [3]; 10-day treatment, 0.3 mg/kg): 28.8 ±4.5%
Time in open arms (%) (Swiss mice [3]; 10-day treatment, 0.3 mg/kg): 11.8 ±3.7%
effects in the elevated plus maze, chronic low dose (Swiss mice [3]; 10-day, 0.3 mg/kg ip daily): No significant effects
Open arm entries (%) (Swiss mice [3]; acute ip, 1 mg/kg): 15.9 ±5.1%
Time in centre (%) (Swiss mice [3]; acute ip, 1 mg/kg): 36.4 ±7.7%
Total arm entries (Swiss mice [3]; acute ip, 1 mg/kg): 17.4 ±2.5
Open arm entries (%) (Swiss mice [3]; acute ip, 3 mg/kg): 28.0 ±2.9%
Time in centre (%) (Swiss mice [3]; acute ip, 3 mg/kg): 38.0 ±2.9%
Time in open arms (%) (Swiss mice [3]; acute ip, 3 mg/kg): 19.8 ±1.6%
Total arm entries (Swiss mice [3]; acute ip, 3 mg/kg): 22.9 ±1.6
Open arm entries (%) (Swiss mice [3]; acute ip, 6 mg/kg): 13.3 ±1.2%
Time in centre (%) (Swiss mice [3]; acute ip, 6 mg/kg): 41.4 ±4.1%
Time in open arms (%) (Swiss mice [3]; acute ip, 6 mg/kg): 7.1 ±1.6%
Total arm entries (Swiss mice [3]; acute ip, 6 mg/kg): 20.4 ±1.3
locomotor activity (Swiss mice [4]; 10-day treatment, 0.3 mg/kg, 5-min session): 598.3 ±14.7 counts
effects in the locomotor activity test, chronic low dose (Swiss mice [4]; 10-day, 0.3 mg/kg ip daily): No significant effects
locomotion (Swiss mice [4]; acute 3 mg/kg ip): not altered
body mass variations versus control mice (Swiss mice [7]): No significant differences
cytotoxic effects (SH-SY5Y cells): no significant cytotoxic effects

inhibition at 300 µM (5-HT1A receptor): 48%
SMILES: C#CCN1CCC(/C=C/c2ccc(C(F)(F)F)cc2)CC1 [Compound 84, (E)-1-(Prop-2-yn-1-yl)-4-(4-(trifluoromethyl)styryl)piperidine]
IC50(MAO-A) class (hMAO-A): na (na-not_active(RA_at_100micromolar>50%))
chemical stability on storage [5]: only smaller amounts of impurities were detected; also recorded: partial degradation
cytotoxic effects (SH-SY5Y cells): no significant cytotoxic effects

SMILES: CN1[C@@H]2C[C@@H](OC(=O)[C@H](CO)c3ccccc3)C[C@H]1[C@@H]1O[C@@H]12 [Scopolamine, reference compound]
latency time to descend from the bar (Swiss mice [8]): significantly decreased the latency time

SMILES: NCCc1ccc(O)cc1 [p-Tyramine, reference compound]
K0.5 (MAO-A/B; substrate of MAO A/B, control mouse brain homogenates): 0.071 ± 0.032 mM
